Experimental data published in PubChem BioAssay AID1259407 (Chemical Carcinogenesis Research Information System (CCRIS), 2018).
Calls of active or inactive are those of the source. The rule behind the calls is not given here.

Tested on: CCRIS mutagenicity, Ames/micronucleus/aberration tests
Test: CCRIS mutagenicity studies
[1] = Test System: AMES SALMONELLA TYPHIMURIUM, Strain/Indicator: TA98, Metabolic Activation: NONE, Method: STANDARD PLATE
[2] = Test System: AMES SALMONELLA TYPHIMURIUM, Strain/Indicator: TA100, Metabolic Activation: NONE, Method: STANDARD PLATE
[3] = Test System: AMES SALMONELLA TYPHIMURIUM, Strain/Indicator: TA98, Metabolic Activation: NONE, Method: PREINCUBATION
[4] = Test System: AMES SALMONELLA TYPHIMURIUM, Strain/Indicator: TA100, Metabolic Activation: NONE, Method: PREINCUBATION
[5] = Test System: AMES SALMONELLA TYPHIMURIUM, Strain/Indicator: TA98, Metabolic Activation: HAMSTER, LIVER, S-9, AROCLOR 1254 (10%), Method: PREINCUBATION
[6] = Test System: AMES SALMONELLA TYPHIMURIUM, Strain/Indicator: TA98, Metabolic Activation: RAT, LIVER, S-9, AROCLOR 1254 (10%), Method: PREINCUBATION
[7] = Test System: AMES SALMONELLA TYPHIMURIUM, Strain/Indicator: TA100, Metabolic Activation: HAMSTER, LIVER, S-9, AROCLOR 1254 (10%), Method: PREINCUBATION
[8] = Test System: AMES SALMONELLA TYPHIMURIUM, Strain/Indicator: TA100, Metabolic Activation: RAT, LIVER, S-9, AROCLOR 1254 (10%), Method: PREINCUBATION
[9] = Test System: AMES SALMONELLA TYPHIMURIUM, Strain/Indicator: TA1535, Metabolic Activation: HAMSTER, LIVER, S-9, AROCLOR 1254 (10%), Method: PREINCUBATION
[10] = Test System: AMES SALMONELLA TYPHIMURIUM, Strain/Indicator: TA1535, Metabolic Activation: NONE, Method: PREINCUBATION
[11] = Test System: AMES SALMONELLA TYPHIMURIUM, Strain/Indicator: TA1535, Metabolic Activation: RAT, LIVER, S-9, AROCLOR 1254 (10%), Method: PREINCUBATION
[12] = Test System: AMES SALMONELLA TYPHIMURIUM, Strain/Indicator: TA1537, Metabolic Activation: HAMSTER, LIVER, S-9, AROCLOR 1254 (10%), Method: PREINCUBATION
[13] = Test System: AMES SALMONELLA TYPHIMURIUM, Strain/Indicator: TA1537, Metabolic Activation: NONE, Method: PREINCUBATION
[14] = Test System: AMES SALMONELLA TYPHIMURIUM, Strain/Indicator: TA1537, Metabolic Activation: RAT, LIVER, S-9, AROCLOR 1254 (10%), Method: PREINCUBATION
[15] = Test System: AMES SALMONELLA TYPHIMURIUM, Strain/Indicator: TA98, Metabolic Activation: RAT, LIVER, S-9, AROCLOR 1254, Method: STANDARD PLATE
[16] = Test System: AMES SALMONELLA TYPHIMURIUM, Strain/Indicator: TA100, Metabolic Activation: RAT, LIVER, S-9, AROCLOR 1254, Method: STANDARD PLATE
[17] = Test System: AMES SALMONELLA TYPHIMURIUM, Strain/Indicator: TA102, Metabolic Activation: NONE, Method: STANDARD PLATE
[18] = Test System: AMES SALMONELLA TYPHIMURIUM, Strain/Indicator: TA102, Metabolic Activation: RAT, LIVER, S-9, AROCLOR 1254, Method: STANDARD PLATE

CC(C)NCC(O)COc1cccc2c1OCC(O)C2 (stereo not given)
mutagenic call [1]: inactive; negative
mutagenic call (Test System: AMES SALMONELLA TYPHIMURIUM, Strain/Indicator: TA98, Metabolic Activation: S-9, Method: STANDARD PLATE): inactive; negative
mutagenic call [2]: inactive; negative
mutagenic call (Test System: AMES SALMONELLA TYPHIMURIUM, Strain/Indicator: TA100, Metabolic Activation: S-9, Method: STANDARD PLATE): inactive; negative
mutagenic call (Test System: AMES SALMONELLA TYPHIMURIUM, Strain/Indicator: TA1535, Metabolic Activation: NONE, Method: STANDARD PLATE): inactive; negative
mutagenic call (Test System: AMES SALMONELLA TYPHIMURIUM, Strain/Indicator: TA1535, Metabolic Activation: S-9, Method: STANDARD PLATE): inactive; negative
mutagenic call (Test System: AMES SALMONELLA TYPHIMURIUM, Strain/Indicator: TA1537, Metabolic Activation: NONE, Method: STANDARD PLATE): inactive; negative
mutagenic call (Test System: AMES SALMONELLA TYPHIMURIUM, Strain/Indicator: TA1537, Metabolic Activation: S-9, Method: STANDARD PLATE): inactive; negative
mutagenic call (Test System: AMES SALMONELLA TYPHIMURIUM, Strain/Indicator: TA1538, Metabolic Activation: NONE, Method: STANDARD PLATE): inactive; negative
mutagenic call (Test System: AMES SALMONELLA TYPHIMURIUM, Strain/Indicator: TA1538, Metabolic Activation: S-9, Method: STANDARD PLATE): inactive; negative
mutagenic call (Test System: E. COLI, Strain/Indicator: WP2 UVRA, Metabolic Activation: NONE, Method: STANDARD PLATE): inactive; negative
mutagenic call (Test System: E. COLI, Strain/Indicator: WP2 UVRA, Metabolic Activation: S-9, Method: STANDARD PLATE): inactive; negative

CC(c1ccccc1)N(C)C (stereo not given)
mutagenic call [3]: inactive; negative
mutagenic call (Test System: AMES SALMONELLA TYPHIMURIUM, Strain/Indicator: TA98, Metabolic Activation: RAT, LIVER, S-9, PCB, Method: PREINCUBATION): inactive; negative
mutagenic call [4]: inactive; negative
mutagenic call (Test System: AMES SALMONELLA TYPHIMURIUM, Strain/Indicator: TA100, Metabolic Activation: RAT, LIVER, S-9, PCB, Method: PREINCUBATION): inactive; negative

COC(C)(C)CC(C)=O
mutagenic call [5]: inactive; negative
mutagenic call [3]: inactive; negative
mutagenic call [6]: inactive; negative
mutagenic call [7]: inactive; negative
mutagenic call [4]: inactive; negative
mutagenic call [8]: inactive; negative
mutagenic call [9]: inactive; negative
mutagenic call [10]: inactive; negative
mutagenic call [11]: inactive; negative
mutagenic call [12]: inactive; negative
mutagenic call [13]: inactive; negative
mutagenic call [14]: inactive; negative

CC1(C)Cc2ncccc2-c2nc(N)sc21
mutagenic call (Test System: AMES SALMONELLA TYPHIMURIUM, Strain/Indicator: TA1538, Metabolic Activation: RAT, LIVER, S-9, AROCLOR 1254, Method: STANDARD PLATE): active; positive

CCCC[C@@H](C)[C@@H](OC(=O)C[C@@H](CC(=O)O)C(=O)O)[C@H](C[C@@H](C)C[C@H](O)CCCC[C@@H](O)C[C@H](O)[C@H](C)N)OC(=O)C[C@@H](CC(=O)O)C(=O)O
mutagenic call (Test System: AMES SALMONELLA TYPHIMURIUM, Strain/Indicator: TA97A, Metabolic Activation: NONE, Method: STANDARD PLATE): inactive; negative
mutagenic call (Test System: AMES SALMONELLA TYPHIMURIUM, Strain/Indicator: TA97A, Metabolic Activation: RAT, LIVER, S-9, AROCLOR 1254, Method: STANDARD PLATE): inactive; negative
mutagenic call [1]: inactive; negative
mutagenic call (Test System: AMES SALMONELLA TYPHIMURIUM, Strain/Indicator: TA98, Metabolic Activation: RAT LIVER S-9, Method: STANDARD PLATE): inactive; negative
mutagenic call [15]: inactive; negative
mutagenic call [2]: inactive; negative
mutagenic call (Test System: AMES SALMONELLA TYPHIMURIUM, Strain/Indicator: TA100, Metabolic Activation: RAT LIVER S-9, Method: STANDARD PLATE): inactive; negative
mutagenic call [16]: inactive; negative
mutagenic call [17]: inactive; negative
mutagenic call (Test System: AMES SALMONELLA TYPHIMURIUM, Strain/Indicator: TA102, Metabolic Activation: RAT LIVER S-9, Method: STANDARD PLATE): inactive; negative
mutagenic call [18]: inactive; negative

O=S1OC[C@@H]2[C@H](CO1)[C@]1(Cl)C(Cl)=C(Cl)[C@@]2(Cl)C1(Cl)Cl (stereo not given in full)
mutagenic call (Test System: AMES SALMONELLA TYPHIMURIUM, Strain/Indicator: TA97, Metabolic Activation: NONE, Method: STANDARD PLATE): inactive; negative
mutagenic call (Test System: AMES SALMONELLA TYPHIMURIUM, Strain/Indicator: TA97, Metabolic Activation: RAT, LIVER, S-9, AROCLOR 1254, Method: STANDARD PLATE): inactive; negative
mutagenic call [1]: inactive; negative
mutagenic call [15]: inactive; negative
mutagenic call [2]: inactive; negative
mutagenic call [16]: inactive; negative
mutagenic call [17]: inactive; negative
mutagenic call [18]: inactive; negative

C=CC(=O)OCCN(C)C
mutagenic call [5]: inactive; negative
mutagenic call [3]: inactive; negative
mutagenic call [6]: inactive; negative
mutagenic call [7]: inactive; negative
mutagenic call [4]: inactive; negative
mutagenic call [8]: inactive; negative
mutagenic call [9]: inactive; negative
mutagenic call [10]: inactive; negative
mutagenic call [11]: inactive; negative
mutagenic call [12]: inactive; negative
mutagenic call [13]: inactive; negative
mutagenic call [14]: inactive; negative

O=[N+]([O-])c1cc2c(cc1Cl)Oc1cc(Cl)c(Cl)cc1O2
mutagenic call [1]: active; positive
mutagenic call (Test System: AMES SALMONELLA TYPHIMURIUM, Strain/Indicator: TA98, Metabolic Activation: RAT, LIVER, S-9, AROCLOR, Method: STANDARD PLATE): active; positive
mutagenic call [2]: active; positive
mutagenic call (Test System: AMES SALMONELLA TYPHIMURIUM, Strain/Indicator: TA100, Metabolic Activation: RAT, LIVER, S-9, AROCLOR, Method: STANDARD PLATE): active; positive

Cc1ccc(S(=O)(=O)Oc2ccc(N=Nc3ccc(-c4ccc(N=Nc5c(S(=O)(=O)O)cc6cc(S(=O)(=O)O)ccc6c5O)cc4C)c(C)c3)cc2)cc1
mutagenic call (Test System: AMES SALMONELLA TYPHIMURIUM, Strain/Indicator: TA98, Metabolic Activation: HAMSTER, LIVER, S-9, Method: PREINCUBATION (PRIVAL METHOD)): inactive; negative
